Data published in PubChem BioAssay (NCI).
Values joined by “and” are separate entries in the source; they are usually repeats but may differ in a detail not shown here. Identical values can stand only once.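 Where inhibition never reached the appropriate level, the endpoint shown equals the highest concentration tested. Otherwise, values were interpolated linearly from a five-concentration, 48-hour dose response in 96-well plates. GI50 = concentration required for 50% inhibition of growth. TGI marks complete inhibition of growth.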

Experiments:
Assay in all cases: NCI anticancer screen, dose series, 48 h
[1] = tested on: A549 NSCLC
[2] = tested on: COLO 205 colon
[3] = tested on: HCT-116 colon
[4] = tested on: K-562 leukemia
[5] = tested on: MALME-3M melanoma
[6] = tested on: MDA-MB-435
[7] = tested on: MOLT-4 leukemia
[8] = tested on: SF-268 CNS
[9] = tested on: SK-OV-3 ovarian
[10] = tested on: UACC-257 melanoma

SMILES | GI50 [1] | TGI [1] | GI50 [2] | TGI [2] | GI50 [3] | TGI [3] | GI50 [4] | TGI [4] | GI50 [5] | TGI [5] | GI50 [6] | TGI [6] | GI50 [7] | TGI [7] | GI50 [8] | TGI [8] | GI50 [9] | TGI [9] | GI50 [10] | TGI [10]
Cc1cnc(Nc2ccc(OCCN3CCCC3)cc2)nc1Nc1cccc(S(=O)(=O)NC(C)(C)C)c1 | 0.335 µM and 1.36 µM | 7.29 µM and 6 µM | 0.72 µM | 0.859 µM and 2.55 µM | 0.345 µM | 4.94 µM and > 6.43 µM | 0.15 µM and 0.676 µM | > 33.6 µM | 0.894 µM and 2.45 µM | 12.3 µM and > 6.36 µM | 0.121 µM and 1.14 µM | 11.9 µM and > 10 µM | 0.18 µM and 1.14 µM | 12.5 µM and > 10 µM | 1.69 µM and 1.67 µM | 7.52 µM and > 8.99 µM | 0.171 µM and 0.631 µM | 2.62 µM and 3.14 µM | 1.28 µM and 3.99 µM | 2.83 µM and > 10 µM
COc1cc2c3c(c1OC)C1(C=CC(=O)C=C1)CC3NCC2 (stereo not given) |  | > 100 µM |  | > 100 µM |  | > 100 µM |  | > 100 µM |  | > 100 µM |  | > 100 µM |  | > 100 µM |  | > 100 µM |  | > 100 µM |  | > 100 µM
CC(=O)c1cc(-c2ccccc2N)n(-c2ccc3c(c2)OCO3)c1C | 0.313 µM | > 100 µM | 0.328 µM | 1.32 µM | 0.257 µM | 15.9 µM | 0.247 µM | > 100 µM | 2.88 µM | > 83.3 µM | 0.163 µM | 0.434 µM | 0.38 µM | > 100 µM | 0.4 µM | > 100 µM | 0.292 µM | 45.3 µM | 27.3 µM | > 100 µM
COc1cc2c(c(OC)c1OC)-c1ccc(O)c(=O)cc1[C@@H](NC(C)=O)CC2 | 10.1 µM | 89.3 µM and > 100 µM | 4.1 µM | > 100 µM and 35.4 µM | 4.23 µM | > 100 µM | 6.91 µM | > 100 µM | 19.2 µM | 97.7 µM | 14.3 µM | > 100 µM and 47.4 µM | 4.66 µM | 45.8 µM and 34.2 µM | 7.42 µM | > 100 µM | 11 µM | > 100 µM | 4.34 µM | 33.3 µM and 77.1 µM
CCOC(=O)Nc1nc2cc(OCC)ccc2s1 | 9.83 µM | > 100 µM | 7.84 µM | > 100 µM | 6.82 µM | > 100 µM | 3 µM | > 100 µM | > 100 µM | > 100 µM | 0.923 µM | 5.15 µM | 31.7 µM | > 100 µM | > 79.7 µM | > 100 µM | > 100 µM | > 100 µM | > 100 µM | > 100 µM
CCCCN(CCCC)CCc1c(C)cc(C)c(CCN(CCCC)CCCC)c1O | 3 µM | > 100 µM | 1.96 µM | 4.14 µM | 1.87 µM | 8.34 µM | 2.25 µM | > 100 µM | 2.94 µM | 11.3 µM | 3.11 µM | 53.2 µM | 2.73 µM | 10.8 µM | 3.23 µM | > 100 µM | 2.68 µM | 8.53 µM | 2.37 µM | 7.44 µM
Nc1cc2[nH]cnc2c(=O)[nH]1 |  | > 300 µM |  | 228 µM |  | > 300 µM |  | > 300 µM |  | 298 µM |  | > 300 µM |  | > 300 µM |  | > 300 µM |  | > 188 µM |  | > 300 µM
C/C(=C(/c1ccc(O)cc1)c1ccc(Cl)cc1)c1ccccc1 | 0.723 µM | 2.53 µM | 2.44 µM | 5.96 µM | 0.543 µM | 1.27 µM | 0.539 µM | 2.83 µM | 0.459 µM | 1 µM | 0.534 µM | 1.18 µM | 0.678 µM | 2.41 µM | 0.582 µM | 1.61 µM | 1.04 µM | 3.76 µM | 0.822 µM | 2.77 µM
CC(C)(C)n1cc(-c2ccnc(NCCCNS(=O)(=O)c3ccc(Br)cc3)c2)c(-c2cccc(O)c2)n1 | 2.11 µM | 5.39 µM | 1.85 µM | 3.79 µM | 1.31 µM | 2.6 µM | 2.02 µM | > 100 µM | 1.66 µM | 3.24 µM | 1.82 µM | 3.29 µM | 2.3 µM | 6.74 µM | 2.4 µM | 6.48 µM | 2.53 µM | 6.26 µM | 2.01 µM | 4.33 µM
Oc1c(Cl)cc(Cl)cc1Sc1cc(Cl)cc(Cl)c1O | 3.37 µM and 3.03 µM | 11.9 µM and 10.6 µM | 2.22 µM and 1.67 µM | 5.23 µM and 3.03 µM | 2.87 µM and 2.44 µM | 9 µM and 6.51 µM | 3.17 µM and 2.91 µM | 12 µM and 23.5 µM | 3.32 µM and 2.51 µM | 13.7 µM and 6.83 µM | 3.42 µM and 2.72 µM | 12.4 µM and 9 µM | 3.8 µM and 2.55 µM | 11.7 µM and 13.1 µM | 4.4 µM and 3.44 µM | 17.3 µM and 14 µM | 2.66 µM | 7.04 µM | 2.65 µM and 1.94 µM | 7.86 µM and 5.71 µM
CCCCCCNC(=O)Oc1ccc(/C(=C(/C)Cc2ccc(OC)cc2)c2ccc(OCCN(C)C)cc2)cc1 | 5.65 µM | 10.8 µM | 4.71 µM | 9.79 µM | 5.52 µM | 10.3 µM | 1.1 µM | 3.63 µM | 4.49 µM | 9.64 µM | 4.62 µM | 9.17 µM | 5.23 µM | 11.5 µM | 5.07 µM | 10.9 µM | 4.99 µM | 9.5 µM | 6.42 µM | 11.9 µM
COc1ccc([C@@H](O)c2cc(-c3ncnc4cc(N5CCOCC5)ccc34)c(F)cc2Cl)nn1 | 2.77 µM | 21 µM | 2.85 µM | 16.5 µM | 3.29 µM | 21.4 µM | 3.78 µM | > 100 µM | 6.4 µM | 55.8 µM | 4.18 µM | 37.4 µM | 1.08 µM | 41.1 µM | 5.99 µM | > 100 µM | 1.27 µM | 10.7 µM | 1.99 µM | 30 µM
COC(=O)[C@]1(C)CCC[C@@]2(C)[C@@H]3C[C@@H]4[C@H]5C[C@@]3(CC[C@@H]21)C[C@@]45C |  | 28 µM |  | 45.8 µM |  | 45.2 µM |  | 19.1 µM |  | 37.3 µM |  | 38.7 µM |  | 33.8 µM |  | 31.8 µM |  | 27.8 µM |  | 28.8 µM
